The subject of assay [1] is S6K pre-mRNA splicing in SW620 cells. Nature of the assay: S6K pre-mRNA splicing alteration (quantitative RT-PCR), SW620. In kind it is cell-based, human. Conditions: ratio of S6K exons 6–8 to exons 6–7 is 0.1. From the text: (§1) To examine whether inhibition of a particular CLK and/or SRPK contributed to the alternative splicing of S6K pre-mRNA, we used an additional series of compounds with the same scaffold as Cpd-1, Cpd-2, and Cpd-3, but different selectivity. First, we examined the correlation between the enzymatic activity and the level of splicing alterations of S6K pre-mRNA for the individual compounds. We used the exon 7-skipped type of S6K variant to calibrate Rc0.1 values, i.e., the concentrations that induced 10% of the copy number of an alternative isoform compared with that of the canonical isoform. The inhibition of CLK1 and CLK2 activities was correlated with the splicing alteration activities (Rc0.1) (R^2 = 0.3353 and 0.4255, respectively). In contrast, there was no correlation between the activities of SRPKs and the Rc0.1 values (R^2 < 0.0468) (Fig. 3A). Next, we compared the levels of splicing alteration and growth inhibition of the compounds. […] Similar correlations between Rc0.1 and GI50 values were also obtained in seven different cancer cell lines after treatment with Cpd-2 or Cpd-3 (Table 2).
(§2) Total RNA was extracted using an RNeasy Miniprep Kit (Qiagen, Valencia, CA) in accordance with the manufacturer’s instructions. Reverse transcription was performed using a TaqMan Reverse Transcription Reagents Kit (Applied Biosystems, Carlsbad, CA). The PCR conditions were as follows: one cycle of 5 min at 95°C; 35 cycles of 30 s at 94°C, 30 s at 60°C, and 30 s at 72°C; and one cycle of 10 min at 72°C. The PCR products were separated in 2% agarose gels. Real-time PCR was performed using a TaqMan MGB probe (Applied Biosystems), and the amount of FAM fluorescence was measured as a function of the PCR cycle number (CT) using an ABI 7900 Real-time PCR System (Applied Biosystems). The expression level of each mRNA was normalized by that of GAPDH mRNA.

The test system of a further assay is HCT-116 cells. Nature of the assay: Cell viability assay, HCT-116. Conditions: Homo sapiens; HCT-116 colorectal cancer. In kind it is cell-based.
Assay [2] has as its system S6K pre-mRNA splicing in COLO320DM cells. Nature of the assay: S6K pre-mRNA splicing alteration (quantitative RT-PCR), COLO320DM. The assay is classed as cell-based, human. The conditions noted are these: ratio of S6K exons 6–8 to exons 6–7 is 0.1.
Description: as §1, §2

For the next assay, the system named is NCI-H23 cells. Kind of assay: Cell viability assay, NCI-H23. In kind it is cell-based. The conditions noted are these: Homo sapiens; NCI-H23 non-small cell lung cancer.
In a further assay the test system is A549 cells. Nature of the assay: Cell viability assay, A549. The assay is classed as cell-based. The conditions noted are these: Homo sapiens; A549 non-small cell lung cancer.
In assay [3] the test system is S6K pre-mRNA splicing in A549 cells. Kind of assay: S6K pre-mRNA splicing alteration (quantitative RT-PCR), A549. The assay is classed as cell-based, human. The conditions noted are these: ratio of S6K exons 6–8 to exons 6–7 is 0.1.
Description: as §1, §2

The subject of another assay is COLO205 cells. Nature of the assay: Cell viability assay, COLO205. The assay is classed as cell-based. Conditions: Homo sapiens, COLO 205; COLO205 colorectal cancer.
Assay [4] has as its system S6K pre-mRNA splicing in NCI-H23 cells. Nature of the assay: S6K pre-mRNA splicing alteration (quantitative RT-PCR), NCI-H23. The assay is classed as cell-based, human. The conditions noted are these: ratio of S6K exons 6–8 to exons 6–7 is 0.1.
Description: as §1, §2

For assay [5], the system named is S6K pre-mRNA splicing in COLO205 cells. Nature of the assay: S6K pre-mRNA splicing alteration (quantitative RT-PCR), COLO205. The assay is classed as cell-based, human. The conditions noted are these: ratio of S6K exons 6–8 to exons 6–7 is 0.1.
Description: as §1, §2

The target in a further assay is T1, SRPK1 (Homo sapiens, UniProt Q96SB4).
T1 construct: Full-length human recombinant SRPK1 with a FLAG tag linked to the N-terminus (FLAG-hSRPK1); FLAG (N); made in house; host or cells: Sf9 cells (baculovirus, Bac-to-Bac)
T1 sequence (Q96SB4 whole entry): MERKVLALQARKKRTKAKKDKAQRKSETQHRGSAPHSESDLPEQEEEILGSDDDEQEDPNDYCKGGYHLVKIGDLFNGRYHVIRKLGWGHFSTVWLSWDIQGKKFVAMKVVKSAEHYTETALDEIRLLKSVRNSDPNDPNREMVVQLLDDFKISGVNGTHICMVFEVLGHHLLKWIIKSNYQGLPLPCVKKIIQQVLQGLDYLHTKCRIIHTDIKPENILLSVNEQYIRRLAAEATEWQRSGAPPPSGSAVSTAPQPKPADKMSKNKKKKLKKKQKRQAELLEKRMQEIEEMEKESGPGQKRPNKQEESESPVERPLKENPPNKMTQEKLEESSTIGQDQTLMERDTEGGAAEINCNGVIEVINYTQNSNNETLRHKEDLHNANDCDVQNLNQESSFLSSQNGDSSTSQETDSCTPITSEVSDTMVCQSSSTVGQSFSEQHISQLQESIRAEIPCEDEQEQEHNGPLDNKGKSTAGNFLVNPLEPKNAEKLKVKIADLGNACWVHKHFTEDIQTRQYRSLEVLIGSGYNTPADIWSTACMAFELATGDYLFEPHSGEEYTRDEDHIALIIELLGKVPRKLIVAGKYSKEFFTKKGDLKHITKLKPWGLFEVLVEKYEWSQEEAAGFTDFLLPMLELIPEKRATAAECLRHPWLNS
Kind of assay: In vitro kinase assay (ADP-Glo), SRPK1. The assay is classed as biochemical. Conditions: 5 µM ATP. On the procedure: Full-length human recombinant SRPK1 with a FLAG tag linked to the N-terminus (FLAG-hSRPK1) was prepared using a baculovirus expression system. The recombinant baculovirus used to express FLAG-hSRPK1 was constructed according to the protocol provided with the Bac-to-Bac Baculovirus Expression System (Invitrogen, Carlsbad, CA). Sf9 cells were infected with the amplified recombinant baculovirus, cultured at 27°C for 3 days, harvested, and stored at −80°C. The frozen cells were suspended in lysis buffer [50 mM Tris-HCl pH 7.5, 150 mM NaCl, 10% (w/v) glycerol, 1 mM DTT, and complete protease inhibitor cocktail (Roche, Basel, Switzerland)], sonicated for 1 min, and centrifuged at 15,000 × g for 30 min. The soluble fraction was applied to an anti-FLAG M2 affinity gel (Sigma-Aldrich, St. Louis, MO), and FLAG-hSRPK1 was eluted with elution buffer [50 mM Tris-HCl pH 7.5, 10% (w/v) glycerol, 1 mM DTT, and 0.1 mg/mL FLAG peptide]. FLAG-hSRPK1 was further purified by anion exchange chromatography (MonoQ 5/50 GL; GE Healthcare, Piscataway, NJ) and gel filtration chromatography (HiLoad 26/60 Superdex 200 pg; GE Healthcare). Protein concentration was measured using BCA protein assay reagents (Thermo Scientific, Pittsburgh, PA). CLK1 and CLK2 were purchased from Life Technologies (Carlsbad, CA) and SRPK2 and SRPK3 were obtained from Millipore (Billerica, MA).
The ATP concentration for each assay was adjusted to the Km for each kinase. […] ADP was detected using a kinase detection reagent (Promega). The kinase activity of CLK2 was measured using the LANCE® Ultra assay (Perkin-Elmer, Waltham, MA) with ADP-Glo assay buffer. […] The enzyme reactions were terminated by adding 30 mM EDTA, and phosphorylated ULight-MBP peptides were detected using a europium-labeled anti-phospho-MBP antibody diluted with detection buffer (Perkin-Elmer). The plates were read using an EnVision 2102 multilabel reader (Perkin-Elmer). We defined the absorbance of the reaction without enzyme as 100% inhibitory activity and that of the complete reaction mixture as 0% inhibitory activity. […]
Background: In ADP-Glo the light output rises with the ADP produced.

Here are results for three compounds from publication PMC4291223, “Inhibitors of CLK Protein Kinases Suppress Cell Growth and Induce Apoptosis by Modulating Pre-mRNA Splicing” (PLoS ONE, 2015).

Each structure is given as a SMILES string.

Broadly, the GI50 is the concentration that inhibits growth by half. In general, IC50 refers to the concentration that inhibits the measured activity by half. A higher IC50 goes with weaker potency.

As to `CC(C)(CCc1nnn[nH]1)c1ccc(C(=O)Nc2cn3cc(C(F)(F)F)ccc3n2)cc1` [Cpd-1, 4-(2-methyl-4-(1H-tetrazol-5-yl)butan-2-yl)-N-(6-(trifluoromethyl)imidazo[1,2-a]pyridin-2-yl)benzamide], the Rc0.1 in assay [1], in assay [2], in assay [3], in [4] and in assay [5] was greater than 10 µM each time. For the same compound, the GI50 with HCT-116 cells amounted to 70200 nM; in the assay with NCI-H23 cells, 32000 nM; in the assay with A549 cells, 102000 nM; with COLO205 cells it was 27300 nM. The IC50 at SRPK1 came out at 61 nM.

Take `CC(C)(C)c1ccc(C(=O)Nc2cn3cc(-c4cn[nH]c4)ccc3n2)cn1` [Cpd-2, 6-tert-butyl-N-(6-(1H-pyrazol-4-yl)imidazo[1,2-a]pyridin-2-yl)nicotinamide]: the Rc0.1 in [1] was found to be 1.2 µM; in assay [2], 0.9 µM; in assay [3], 0.3 µM; in assay [4], 0.9 µM; in [5] it was 1.6 µM. Also, the GI50 in the assay with HCT-116 cells came out at 2200 nM; in the assay with NCI-H23 cells it was 1400 nM; in the assay with A549 cells, 1900 nM; in the assay on COLO205 cells it was 1700 nM. This compound also had an IC50 at SRPK1 of 200 nM.

For `CC(C)(CO)c1ccc(C(=O)Nc2cn3cc(-c4cn[nH]c4)ccc3n2)cc1` [Cpd-3, 4-(1-hydroxy-2-methylpropan-2-yl)-N-(6-(1H-pyrazol-4-yl)imidazo[1,2-a]pyridin-2-yl)benzamide], the Rc0.1 in assay [1] turned out to be 1.4 µM; in assay [2] it was 1.1 µM; in assay [3], 1.2 µM; in [4] it was 1.1 µM; in [5], 2.6 µM. Besides, the GI50 is 2500 nM in the assay with HCT-116 cells, 2200 nM in the assay on NCI-H23 cells, 2600 nM in the assay on A549 cells and 2100 nM with COLO205 cells. The compound also registered a half-inhibitory concentration (IC50) against SRPK1 of 130 nM.
